Assay results taken from patent US20190231751A1, “TREATMENT OF FIBROTIC DISORDERS WITH JUN N-TERMINAL KINASE INHIBITORS” (Imago Pharmaceuticals, Inc., priority 2016, published 2019).

Columns and labels:
Type in all cases: biochemical
JNK2 = JNK2 (Homo sapiens, UniProt P45984); experiment: In vitro JNK2 inhibition (Table 1)
Protocol: (§1) In vitro assays for the determination of JNK activities are known in the art and exemplary assay formats are described herein.
(§2) IC50 values in Table 1 were determined using the procedures as described in U.S. Pat. No. 8,450,353.

JNK1 = JNK1 (Homo sapiens, UniProt P45983); experiment: In vitro JNK1 inhibition (Table 1)
JNK1, sequence (P45983 whole entry, species assumed): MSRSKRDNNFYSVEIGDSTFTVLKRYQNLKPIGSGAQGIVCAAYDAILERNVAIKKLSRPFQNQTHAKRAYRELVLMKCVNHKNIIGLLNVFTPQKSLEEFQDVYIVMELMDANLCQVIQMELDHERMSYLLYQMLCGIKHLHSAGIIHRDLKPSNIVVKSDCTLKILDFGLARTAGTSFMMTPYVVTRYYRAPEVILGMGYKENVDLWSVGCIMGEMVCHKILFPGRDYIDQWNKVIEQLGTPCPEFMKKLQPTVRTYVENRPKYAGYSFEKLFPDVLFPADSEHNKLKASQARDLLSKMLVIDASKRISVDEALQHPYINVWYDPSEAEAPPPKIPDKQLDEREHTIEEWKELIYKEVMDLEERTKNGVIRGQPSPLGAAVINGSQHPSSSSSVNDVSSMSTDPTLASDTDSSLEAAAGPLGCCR
Protocol: as §1, §2

JNK3 = JNK3 (Homo sapiens, UniProt P53779); experiment: In vitro JNK3 inhibition (Table 1)
JNK3, sequence (P53779 whole entry, species assumed): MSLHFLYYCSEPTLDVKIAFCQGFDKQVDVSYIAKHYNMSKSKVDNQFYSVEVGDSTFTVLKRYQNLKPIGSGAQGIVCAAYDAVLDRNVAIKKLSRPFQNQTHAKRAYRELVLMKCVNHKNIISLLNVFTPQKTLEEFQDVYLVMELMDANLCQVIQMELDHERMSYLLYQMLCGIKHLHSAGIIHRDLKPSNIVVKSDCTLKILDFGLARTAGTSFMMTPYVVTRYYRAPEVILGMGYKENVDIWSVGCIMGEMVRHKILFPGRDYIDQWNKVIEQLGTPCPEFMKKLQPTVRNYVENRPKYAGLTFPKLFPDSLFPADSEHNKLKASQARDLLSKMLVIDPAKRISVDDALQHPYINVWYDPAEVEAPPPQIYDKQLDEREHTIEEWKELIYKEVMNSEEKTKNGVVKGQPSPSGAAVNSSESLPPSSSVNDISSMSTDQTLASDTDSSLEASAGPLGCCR
Protocol: as §1, §2

JNK2, sequence (P45984 whole entry, species assumed): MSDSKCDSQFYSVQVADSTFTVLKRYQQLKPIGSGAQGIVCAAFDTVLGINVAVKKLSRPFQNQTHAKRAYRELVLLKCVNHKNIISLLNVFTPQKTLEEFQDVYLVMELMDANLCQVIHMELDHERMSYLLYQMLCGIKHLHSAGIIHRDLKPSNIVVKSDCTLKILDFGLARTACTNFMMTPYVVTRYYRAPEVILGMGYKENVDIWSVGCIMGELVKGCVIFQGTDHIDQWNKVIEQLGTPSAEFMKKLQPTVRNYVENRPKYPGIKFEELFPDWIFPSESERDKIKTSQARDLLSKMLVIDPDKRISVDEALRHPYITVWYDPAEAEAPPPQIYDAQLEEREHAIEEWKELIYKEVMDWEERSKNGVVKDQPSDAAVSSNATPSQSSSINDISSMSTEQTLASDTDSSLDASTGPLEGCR

Compound | IC50 (JNK2) [nM] | IC50 (JNK1) [nM] | IC50 (JNK3) [nM]
COc1ccc(CC(=O)Nc2ccsc2-n2cc(C)cn2)cc1 [2-(4-methoxyphenyl)-N-(2-(4-methyl-1H-pyrazol-1-yl)thiophen-3-yl)acetamide] | 10000 to 50000 |  | 
COc1ccc(CC(=O)Nc2ccsc2-c2ncco2)cc1 [2-(4-methoxyphenyl)-N-(2-(oxazol-2-yl)thiophen-3-yl)acetamide] | 10000 to 50000 |  | 
COc1ccc(CC(=O)Nc2sccc2-c2nnn(C)n2)cc1 [2-(4-methoxyphenyl)-N-(3-(2-methyl-2H-tetrazol-5-yl)thiophen-2-yl)acetamide] | 10000 to 50000 |  | 
COc1nc(-c2sccc2NC(=O)Cc2cccc3cnccc23)cs1 [2-(isoquinolin-5-yl)-N-(2-(2-methoxythiazol-4-yl)thiophen-3-yl)acetamide] | 10000 to 50000 |  | 
Cn1ncnc1-c1ncsc1NC(=O)Cc1cccc2cnccc12 [2-(isoquinolin-5-yl)-N-(4-(1-methyl-1H-1,2,4-triazol-5-yl)thiazol-5-yl)acetamide] | 100 to 10000 |  | 
O=C(Cc1cccc2ccccc12)Nc1ccsc1-c1nnco1 [N-(2-(1,3,4-oxadiazol-2-yl)thiophen-3-yl)-2-(naphthalen-1-yl)acetamide] | 10000 to 50000 |  | 
O=C(Cc1ccc2c(c1)OCCO2)Nc1ccsc1-c1ncn[nH]1 [N-(2-(1H-1,2,4-triazol-5-yl)thiophen-3-yl)-2-(2,3-dihydrobenzo[b][1,4]dioxin-6-yl)acetamide] | 100 to 10000 |  | 
O=C(CN1C(=O)CCc2ccccc21)Nc1ccsc1-c1c[nH]cn1 [N-(2-(1H-imidazol-4-yl)thiophen-3-yl)-2-(2-oxo-3,4-dihydroquinolin-1(2H)-yl)acetamide] | 10000 to 50000 |  | 
O=C(Cc1cccc2cnccc12)Nc1ccsc1-c1csc(Cl)n1 [N-(2-(2-chlorothiazol-4-yl)thiophen-3-yl)-2-(isoquinolin-5-yl)acetamide] | 10000 to 50000 |  | 
COc1ccc(CC(=O)Nc2ccsc2-c2nc(N)n[nH]2)cc1 [N-(2-(3-amino-1H-1,2,4-triazol-5-yl)thiophen-3-yl)-2-(4-methoxyphenyl)acetamide] | 100 to 10000 |  | 
Cc1n[nH]c(-c2sccc2NC(=O)Cc2ccc(N3CCCC3=O)cc2)n1 [N-(2-(3-methyl-H-1,2,4-triazol-5-yl)thiophen-3-yl)-2-(4-(2-oxopyrrolidin-1-yl)phenyl)acetamide] | 100 to 10000 |  | 
COc1ccc(CC(=O)Nc2ccsc2-c2nc(C(C)(C)C)n[nH]2)cc1 [N-(2-(3-tert-butyl-1H-1,2,4-triazol-5-yl)thiophen-3-yl)-2-(4-methoxyphenyl)acetamide] | 10000 to 50000 |  | 
Cc1nnc(-c2sccc2NC(=O)Cc2cccc3ccccc23)o1 [N-(2-(5-methyl-1,3,4-oxadiazol-2-yl)thiophen-3-yl)-2-(naphthalen-1-yl)acetamide] | 10000 to 50000 |  | 
COc1ccc(CC(=O)Nc2sccc2-c2nn[nH]n2)cc1 [N-(3-(2H-tetrazol-5-yl)thiophen-2-yl)-2-(4-methoxyphenyl)-acetamide] | 10000 to 50000 |  | 
Cc1csc(NC(=O)Cc2cccc3cnccc23)c1-c1nc2ccccc2s1 [N-(3-(benzo[d]thiazol-2-yl)-4-methylthiophen-2-yl)-2-(isoquinolin-5-yl)acetamide] | 10000 to 50000 |  | 
O=C(Cn1c(=O)ccc2cc(Cl)ccc21)Nc1scc(Br)c1-c1ncn[nH]1 [N-(4-bromo-3-(1H-1,2,4-triazol-5-yl)thiophen-2-yl)-2-(6-chloro-2-oxoquinolin-1(2H)-yl)acetamide] | < 100 | < 100 | < 100
N#Cc1ccc2c(ccc(=O)n2CC(=O)Nc2scc(Br)c2-c2ncn[nH]2)c1 [N-(4-bromo-3-(1H-1,2,4-triazol-5-yl)thiophen-2-yl)-2-(6-cyano-2-oxoquinolin-1(2H)-yl)acetamide] | < 100 | < 100 | < 100
C#Cc1ccc2c(ccc(=O)n2CC(=O)Nc2scc(Br)c2-c2ncn[nH]2)c1 [N-(4-bromo-3-(1H-1,2,4-triazol-5-yl)thiophen-2-yl)-2-(6-ethynyl-2-oxoquinolin-1(2H)-yl)acetamide] | < 100 | < 100 | < 100
Cc1csc(NC(=O)Cc2cccc3ncccc23)c1-c1ncn[nH]1 [N-(4-methyl-3-(1H-1,2,4-triazol-5-yl)thiophen-2-yl)-2-(quinolin-5-yl)acetamide] | 100 to 10000 |  | 
O=C(Cn1c(=O)ccc2cc(C(F)(F)F)ccc21)Nc1sc(Cl)cc1-c1ncn[nH]1 [N-(5-chloro-3-(1H-1,2,4-triazol-5-yl)thiophen-2-yl)-2-(2-oxo-6-(trifluoromethyl)quinolin-1(2H)-yl)acetamide] | 100 to 10000 |  | 100 to 10000

Other lines, results leading:

IC50 (JNK2) [nM] | IC50 (JNK1) [nM] | IC50 (JNK3) [nM] | Compound
< 100 | < 100 | < 100 | O=C(Cn1c(=O)ccc2cc(Br)ccc21)Nc1scc(Br)c1-c1nc[nH]n1 [2-(6-bromo-2-oxoquinolin-1(2H)-yl)-N-(4-bromo-3-(1H-1,2,4-triazol-3-yl)thiophen-2-yl)acetamide]
< 100 | < 100 | < 100 | O=C(Cn1c(=O)ccc2cc(Br)ccc21)Nc1scc(Cl)c1-c1nc[nH]n1 [2-(6-bromo-2-oxoquinolin-1(2H)-yl)-N-(4-chloro-3-(1H-1,2,4-triazol-3-yl)thiophen-2-yl)acetamide]
< 100 | < 100 | < 100 | O=C(Cn1c(=O)ccc2ncccc21)Nc1scc(Br)c1-c1ncn[nH]1 [IGP002, N-(4-bromo-3-(1H-1,2,4-triazol-5-yl)thiophen-2-yl)-2-(2-oxo-1,5-naphthyridin-1(2H)-yl)acetamide]
< 100 | < 100 | < 100 | Cn1cnc(-c2c(Br)csc2NC(=O)CN2C(=O)CCc3ncccc32)n1 [N-(4-bromo-3-(1-methyl-1H-1,2,4-triazol-3-yl)thiophen-2-yl)-2-(2-oxo-3,4-dihydro-1,5-naphthyridin-1(2H)-yl)acetamide]
< 100 | < 100 | < 100 | O=C(Cc1cccc2ncc(F)cc12)Nc1scc(Br)c1-c1nc[nH]n1 [N-(4-bromo-3-(1H-1,2,4-triazol-3-yl)thiophen-2-yl)-2-(3-fluoroquinolin-5-yl)acetamide]
< 100 | < 100 | < 100 | O=C(Cn1c(=O)ccc2cnccc21)Nc1scc(Br)c1-c1ncn[nH]1 [N-(4-bromo-3-(1H-1,2,4-triazol-5-yl)thiophen-2-yl)-2-(2-oxo-1,6-naphthyridin-1(2H)-yl)acetamide]
< 100 | < 100 | < 100 | O=C(CN1C(=O)CCc2ncccc21)Nc1scc(Br)c1-c1ncn[nH]1 [N-(4-bromo-3-(1H-1,2,4-triazol-5-yl)thiophen-2-yl)-2-(2-oxo-3,4-dihydro-1,5-naphthyridin-1(2H)-yl)acetamide]
< 100 | < 100 | < 100 | O=C(CN1C(=O)CCc2cnccc21)Nc1scc(Br)c1-c1ncn[nH]1 [N-(4-bromo-3-(1H-1,2,4-triazol-5-yl)thiophen-2-yl)-2-(2-oxo-3,4-dihydro-1,6-naphthyridin-1(2H)-yl)acetamide]
< 100 | < 100 | < 100 | O=C(CN1C(=O)CCc2ccccc21)Nc1scc(Br)c1-c1ncn[nH]1 [N-(4-bromo-3-(1H-1,2,4-triazol-5-yl)thiophen-2-yl)-2-(2-oxo-3,4-dihydroquinolin-1(2H)-yl)acetamide]
< 100 | < 100 | < 100 | O=C(Cn1c(=O)ccc2nc(C(F)(F)F)ccc21)Nc1scc(Br)c1-c1ncn[nH]1 [N-(4-bromo-3-(1H-1,2,4-triazol-5-yl)thiophen-2-yl)-2-(2-oxo-6-(trifluoromethyl)-1,5-naphthyridin-1(2H)-yl)acetamide]
< 100 | < 100 | < 100 | O=C(CN1C(=O)CCc2cc(C(F)(F)F)ccc21)Nc1scc(Br)c1-c1ncn[nH]1 [N-(4-bromo-3-(1H-1,2,4-triazol-5-yl)thiophen-2-yl)-2-(2-oxo-6-(trifluoromethyl)-3,4-dihydroquinolin-1(2H)-yl)acetamide]
< 100 | < 100 | < 100 | O=C(Cn1c(=O)ccc2cnc(C(F)(F)F)cc21)Nc1scc(Br)c1-c1ncn[nH]1 [N-(4-bromo-3-(1H-1,2,4-triazol-5-yl)thiophen-2-yl)-2-(2-oxo-7-(trifluoromethyl)-1,6-naphthyridin-1(2H)-yl)acetamide]
< 100 | < 100 | < 100 | O=C(Cn1c(=O)ccc2ccc(C(F)(F)F)cc21)Nc1scc(Br)c1-c1ncn[nH]1 [N-(4-bromo-3-(1H-1,2,4-triazol-5-yl)thiophen-2-yl)-2-(2-oxo-7-(trifluoromethyl)quinolin-1(2H)-yl)acetamide]
< 100 | < 100 | < 100 | O=C(Cn1c(=O)ccc2c(F)cccc21)Nc1scc(Br)c1-c1ncn[nH]1 [N-(4-bromo-3-(1H-1,2,4-triazol-5-yl)thiophen-2-yl)-2-(5-fluoro-2-oxoquinolin-1(2H)-yl)acetamide]
< 100 | < 100 | < 100 | O=C(Cn1c(=O)ccn2nc(C(F)(F)F)cc12)Nc1scc(Br)c1-c1ncn[nH]1 [N-(4-bromo-3-(1H-1,2,4-triazol-5-yl)thiophen-2-yl)-2-(5-oxo-2-(trifluoromethyl)pyrazolo[1,5-a]pyrimidin-4(5H)-yl)acetamide]
< 100 | < 100 | < 100 | O=C(Cn1c(=O)ccn2nccc12)Nc1scc(Br)c1-c1ncn[nH]1 [N-(4-bromo-3-(1H-1,2,4-triazol-5-yl)thiophen-2-yl)-2-(5-oxopyrazolo[1,5-a]pyrimidin-4(5H)-yl)acetamide]
< 100 | < 100 | < 100 | O=C(Cn1c(=O)ccc2cc(F)c(F)cc21)Nc1scc(Br)c1-c1ncn[nH]1 [N-(4-bromo-3-(1H-1,2,4-triazol-5-yl)thiophen-2-yl)-2-(6,7-difluoro-2-oxoquinolin-1(2H)-yl)acetamide]
